One experiment concerns Phytophthora capsici. The experiment can be described thus: In vitro fungitoxicity assay against Phytophthora capsici in copper-minus AS and copper-plus AS medium. The experiment is classed as cell-based. As to conditions: CuCl2 50 uM without any test compound, across experiments. As to the method:
In vitro fungitoxicity assays against Phytophthora capsici were conducted using the asparagine-sucrose (AS) medium described in Canadian Journal of Microbiology 1961, 7, 15-25, except that copper micronutrient, normally included as CuSO4, was omitted. The medium, termed “copper-minus AS”, was prepared by dissolving 2 g asparagine, 0.43 g KH2PO4, 0.3 g K2HPO4, 0.4 mL of a 0.5 mg/mL thiamine-HCl solution and 15 g sucrose in 1 liter of deionized water and treating the solution with 0.5 g Chelex 100 resin (Bio-Rad Analytical grade, 50-100 mesh, sodium form, cat#142-2822) by stirring at room temperature for 1 h. The pH was adjusted to 6.4, then MgSO4.7H2O (100 μg/mL), FeSO4.7H2O (1 μg/mL), CaCl2 (50 μg/mL), ZnSO4.7H2O (1 μg/mL), NaMoO4.2H2O (0.2 μg/mL) and MnCl2.4H2O (0.2 μg/mL) were added and the entire medium was sterilized by filtration. […]
Phytophthora capsici was grown on petri plates, 9 cm in diameter, containing 15 mL V-8 agar, pH 7.0, containing 200 mL V-8 juice, 4 g CaCO3, and 20 g agar per liter. […] Microtiter plates were inoculated with 100 μL of spore suspension and incubated at 25° C. for 48 h before assessing fungal growth by measuring light scattering in a NepheloStar plate reader. Growth inhibition was determined by comparing growth in the presence of test compound with growth in control wells lacking test compound. […]

Experiment [1] has as its system Leptosphaeria nodorum (LEPTNO). The experiment can be described thus: In vitro fungitoxicity assay against Leptosphaeria nodorum in copper-minus and copper-plus liquid medium (growth inhibition, light scattering). The experiment is classed as cell-based. As to conditions: Parastagonospora nodorum; compound 0.05 μg/mL, copper-minus medium, 72 h at 25° C.; read-out: LEPTNO % Inhn. Minus Copper Observed. As to the method: In vitro fungitoxicity assays against Leptosphaeria nodorum (LEPTNO) were conducted using the liquid growth medium described by Coursen and Sisler (American Journal of Botany 1960, 47, 541-549) except that copper micronutrient, normally included as CuSO4, was omitted. The medium, termed “copper-minus”, was prepared by dissolving 10 g glucose, 1.5 g K2HPO4, 2 g KH2PO4 and 1 g (NH4)2SO4 in 1 liter of deionized water and treating the solution with 0.5 g Chelex 100 resin (Bio-Rad Analytical grade, 50-100 mesh, sodium form, cat#142-2822) by stirring at room temperature for 1 h. MgSO4.7H2O (0.5 g) was added, and stirring was continued for a further hour. Trace elements (minus CuSO4), and vitamins described by Coursen and Sisler were added from concentrated stock solutions and the entire medium was sterilized by filtration. Medium containing copper was prepared by adding CuCl2.2H2O to the copper-minus medium at 20 μM. […]
LEPTNO was grown on potato dextrose agar in 9 cm diameter petri dishes for 7 days. […] Microtiter plates were inoculated with 100 μL of this spore suspension and the plates incubated at 25° C. for 72 h before assessing fungal growth by measuring light scattering in a NepheloStar plate reader. Growth inhibition was determined by comparing growth in the presence of test compound with growth in control wells lacking test compound. […]

On to `O.O.[Cl][Cu][Cl]` [CuCl2, CuCl2.2H2O], for which the “% Inhn (copper chloride alone; printed in column Minus copper Observed)” value with Phytophthora capsici was found to be 4.5 ± 7.9%.
For `O=C(N/N=C/c1cccc(F)c1O)c1ccccc1` [Compound 1], the inhibition of growth at 0.05 µg/mL in experiment [1] came to 4.4%.

Values taken from patent US8455394B2 (priority 2009, dated 2013).
